Values joined by “and” are separate entries in the source; they are usually repeats but may differ in a detail not shown here. Identical values can stand only once.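 Five concentrations, 48 hours, 96-well plates. At the GI50, growth is halved. TGI is the concentration that stops growth completely.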
What was measured:
Assay in all cases: growth of human tumour cells (NCI), 48 h
[1] = tested on: NCI-H23 lung
[2] = tested on: NCI-H460 lung
[3] = tested on: NCI-H522 lung
[4] = tested on: NCI/ADR-RES ovarian
[5] = tested on: OVCAR-3 ovarian
[6] = tested on: OVCAR-4 ovarian
[7] = tested on: OVCAR-5 ovarian
[8] = tested on: OVCAR-8 ovarian
[9] = tested on: PC-3 prostate
[10] = tested on: RPMI-8226 leukemia
[11] = tested on: RXF 393 renal
[12] = tested on: SF-268 CNS
[13] = tested on: SF-295 CNS
[14] = tested on: SF-539 CNS
[15] = tested on: SK-MEL-2 melanoma
[16] = tested on: SK-MEL-28 melanoma
[17] = tested on: SK-MEL-5 melanoma
[18] = tested on: SK-OV-3 ovarian
[19] = tested on: SN12C renal
[20] = tested on: SNB-19 CNS
[21] = tested on: SNB-75 CNS
[22] = tested on: SR leukemia
[23] = tested on: SW-620 colon
[24] = tested on: T-47D breast
[25] = tested on: TK-10 renal
[26] = tested on: U251 CNS
[27] = tested on: UACC-257 melanoma
[28] = tested on: UACC-62 melanoma
[29] = tested on: UO-31 renal

C[C@H](NC(=O)c1c(N)nn2cccnc12)c1cc2cccc(C#Cc3cnn(C)c3)c2c(=O)n1-c1ccccc1
GI50 [1]: 4.99 µM and 11 µM
TGI [1]: > 10 µM and 24.7 µM
GI50 [2]: 3.8 µM and 5.2 µM
TGI [2]: > 10 µM and 23.9 µM
GI50 [3]: 5.27 µM and 10.5 µM
TGI [3]: > 10 µM and 54.8 µM
GI50 [4]: 6.28 µM and 4.55 µM
TGI [4]: > 10 µM and 56 µM
GI50 [5]: 4.27 µM and 4.6 µM
TGI [5]: > 10 µM and 27.1 µM
GI50 [6]: 8.72 µM and 13.3 µM
TGI [6]: > 10 µM and 68.4 µM
GI50 [7]: 8.65 µM and 6.17 µM
TGI [7]: > 10 µM and 28.7 µM
GI50 [8]: > 10 µM and 12.6 µM
TGI [8]: > 100 µM
GI50 [9]: 1.6 µM and 1.98 µM
TGI [9]: > 100 µM
GI50 [10]: 3.23 µM and 3.84 µM
TGI [10]: > 10 µM and 31.4 µM
GI50 [11]: 2.02 µM and 1.58 µM
TGI [11]: > 10 µM and 9.57 µM
GI50 [12]: > 10 µM and 10.1 µM
TGI [12]: > 10 µM and 72.2 µM
GI50 [13]: 2.52 µM and 2.47 µM
TGI [13]: > 10 µM and 15.6 µM
GI50 [14]: 3.33 µM and 3.36 µM
TGI [14]: > 10 µM and 16.4 µM
GI50 [15]: > 10 µM and 6.61 µM
TGI [15]: > 10 µM and 41.1 µM
GI50 [16]: 3.08 µM and 3.9 µM
TGI [16]: > 10 µM and 38.6 µM
GI50 [17]: 4.54 µM and 12.3 µM
TGI [17]: > 10 µM and 29.1 µM
GI50 [18]: 2.89 µM and 2.13 µM
TGI [18]: > 10 µM and 15.5 µM
GI50 [19]: 4.09 µM and 6.47 µM
TGI [19]: > 10 µM and 43.4 µM
GI50 [20]: 6.27 µM and 10.4 µM
TGI [20]: > 100 µM
GI50 [21]: 0.679 µM and 0.531 µM
TGI [21]: > 10 µM and 10.5 µM
GI50 [22]: 3.59 µM and 2.4 µM
TGI [22]: > 100 µM
GI50 [23]: 3.14 µM and 11.9 µM
TGI [23]: > 10 µM and 61 µM
GI50 [24]: 0.211 µM and 0.224 µM
TGI [24]: 1.91 µM and 3.88 µM
GI50 [25]: 2.07 µM and 1.38 µM
TGI [25]: > 10 µM and 12.1 µM
GI50 [26]: 7.5 µM and 8.22 µM
TGI [26]: > 10 µM and 48.5 µM
GI50 [27]: > 10 µM and 9.9 µM
TGI [27]: > 10 µM and 39.2 µM
GI50 [28]: 0.682 µM and 1.38 µM
TGI [28]: > 10 µM and 23.2 µM
GI50 [29]: 0.666 µM and 0.981 µM
TGI [29]: > 10 µM and 13.8 µM

Source: PubChem BioAssay (NCI)
